pIC50: −log10 of the molar value. No end group written: not given here.
Columns and labels:
Experiment in all cases: biochemical
DR1 (DRB1*0101) = DR1 (DRB1*0101) (Homo sapiens, UniProt P01903+P01911, A100R/D57E/F55L/F60I/F76Y/I96L/L162R/M171V/P40L/Q125E/R42F/V115G/Y59C); format: binding
DR4w4 (DRB1*0401) = DR4w4 (DRB1*0401) (Homo sapiens, UniProt P01903+P01911, A100K/A169T/F76Y/I96L/K127E/L162R/M171V/N62H/P40V/Q125Y/R42H/S133A/S149N/S66Y/V115G/V209L/W38E); format: binding
DRB1*0301 = DRB1*0301 (Homo sapiens, UniProt P01903+P01911, A100K/A102G/A103R/A169T/F55Y/I96L/K41T/L162R/M171V/P40S/Q125H/Q178H/Q39Y/R42S/S66N/T106N/T262R/W38E/Y61H); format: binding
Chain of DRB1*0301 (P01903 26-254 limits assumed, other chains not shown): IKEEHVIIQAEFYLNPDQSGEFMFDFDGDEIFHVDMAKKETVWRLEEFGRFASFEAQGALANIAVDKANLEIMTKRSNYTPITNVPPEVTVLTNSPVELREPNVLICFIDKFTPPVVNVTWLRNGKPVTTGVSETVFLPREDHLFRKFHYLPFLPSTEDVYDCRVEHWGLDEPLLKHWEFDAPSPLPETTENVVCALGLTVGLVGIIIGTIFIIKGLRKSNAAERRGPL

DRB1*0405 = DRB1*0405 (Homo sapiens, UniProt P01903+P01911, A100R/A169T/D86S/F76Y/I96L/K127E/L162R/M171V/N62H/P40V/Q125Y/R42H/S133A/S149N/S66Y/V115G/V209L/W38E); format: binding
DRB1*0802 = DRB1*0802 (Homo sapiens, UniProt P01903+P01911, A100R/A103L/A169T/F76Y/H45Y/I96F/K41T/L162R/M171V/P40S/Q125H/Q178H/Q39Y/Q99D/R218S/R42G/S66Y/V115G/W38E); format: binding
DRB1*0901 = DRB1*0901 (Homo sapiens, UniProt P01903+P01911, A100R/A103E/D57H/D86V/F55Y/F60I/F76Y/I96F/K127E/L162R/M171V/P40D/Q125H/Q99R/R33Q/R42F/S133A/S66N/T210M/V115G/W38K/Y107V/Y59G/Y89S); format: binding
DRB1*1201 = DRB1*1201 (Homo sapiens, UniProt P01903+P01911, A100R/A169T/D57E/D86V/F55L/H45Y/K41T/L162R/M171V/P40S/Q125H/Q178H/Q39Y/Q99D/R42G/S66L/T262R/V114A/V67L/W38E/Y59H/Y61H/Y89S); format: binding
DRB1*1302 = DRB1*1302 (Homo sapiens, UniProt P01903+P01911, A100E/A169T/K41T/L162R/M171V/P40S/Q125H/Q178H/Q39Y/Q99D/R42S/S66N/T262R/V115G/W38E/Y61H); format: binding
Chain of DRB1*1302 (P01903 26-254 limits assumed, other chains not shown): as above

DRB1*1501 = DRB1*1501 (Homo sapiens, UniProt P01903+P01911); format: binding
DRB4*0101 = DRB4*0101 (Homo sapiens, UniProt P01903+P13762, G164S); format: binding
DRB1*1101 = DRB1*1101 (Homo sapiens, UniProt P01903+P01911, A100R/A169T/A87E/I96F/K41T/L162R/M171V/P40S/Q125H/Q178H/Q39Y/Q99D/R42S/S66Y/T262R/V115G/W38E); conditions: Binding affinity DRB1 *1101
Chain of DRB1*1101 (P01903 26-254 limits assumed, other chains not shown): as above

DRB5*0101 = DRB5*0101 (Homo sapiens, UniProt P01903+Q30154); conditions: Binding affinity DRB5 *0101
DR7 (DRB1*0701) = DR7 (DRB1*0701) (Homo sapiens, UniProt P01903+P01911, A100R/A102G/A103Q/D57E/D86V/E43K/F76Y/K127E/L162R/M171V/P40G/Q125H/Q99D/R33Q/R42Y/R54Q/S133A/S66F/T210M/V115G/Y107V/Y59L/Y89S); format: binding

| Sequence | pIC50 (DR1 (DRB1*0101)) | pIC50 (DR4w4 (DRB1*0401)) | pIC50 (DRB1*0301) | pIC50 (DRB1*0405) | pIC50 (DRB1*0802) | pIC50 (DRB1*0901) | pIC50 (DRB1*1201) | pIC50 (DRB1*1302) | pIC50 (DRB1*1501) | pIC50 (DRB4*0101) | pIC50 (DRB1*1101) | pIC50 (DRB5*0101) | pIC50 (DR7 (DRB1*0701)) |
| --- | --- | --- | --- | --- | --- | --- | --- | --- | --- | --- | --- | --- | --- |
| KVAMLDDATHTCWTY [Peptide 90.0105] | 6.60 | 7.47 | 6.39 | 6.55 | 5.09 | < 4.70 | 5.03 | < 4.70 | 5.65 | 7.68 | 5.65 | < 4.70 |  |
| LKAICIENNSKTAKR [Peptide 90.0064] | 7.21 | 7.44 | 7.07 | 6.43 |  | < 4.70 | 5.34 | 6.84 | 6.44 | 7.07 |  |  | 5.20 |
| LKVLIKQHSLYTHLQ [Peptide 89.0061] | 8.37 | 7.77 | 5.74 | 6.16 | 7.24 |  | 7.48 | 7.52 | 7.74 | 7.96 | 7.37 |  | 6.35 |
| RGIIILLLIRFRCSK [Peptide 89.0063] | 6.17 | 6.05 | < 4.70 | 6.62 | 5.19 | < 4.70 | 5.70 | 6.45 | 6.37 | 6.55 |  | < 4.70 | 6.14 |
| SNLLSIPETCMVIEP [Peptide 89.0067] | 6.46 | 6.49 | < 4.70 | 7.74 | 4.77 | 5.88 | 5.41 | 6.46 | 6.29 | 6.02 | 4.89 | < 4.70 |  |
| VDFIDTQLSICEQAE [Peptide 89.0078] |  | 5.89 | 5.42 | 6.55 | 5.13 | 5.22 | 5.70 | 5.81 | 6.22 | 6.33 | 5.41 | 5.82 | 6.37 |
| VEFMSFLTALKRFLQ [Peptide 89.0015] | 7.72 | 7.14 | 6.46 | 6.34 | 6.99 |  | 7.04 | 5.01 | 5.74 | 7.38 | 7.36 | 7.72 | 6.96 |
| VTAIFGVNPTIAEGF [Peptide 89.0023] | 5.94 | 6.08 | 5.47 | 7.00 | < 4.70 | 5.54 | 5.18 | 6.71 | 5.24 | 6.26 | < 4.70 | < 4.70 |  |
| YFKYFKEDAAKYSKT [Peptide 90.0205] |  | 7.15 | 6.32 | < 4.70 | 5.22 |  | 5.09 | < 4.70 | 5.41 | < 4.70 | 5.72 | 5.33 | 5.44 |
| YFKYFKEDAKKYSKT [Peptide 90.0253] | 5.40 | 5.44 | 6.97 | < 4.70 |  | < 4.70 | < 4.70 | < 4.70 | < 4.70 | < 4.70 |  | 6.54 | < 4.70 |
